Data: publication PMC12518996 (Frontiers in Pharmacology, 2025)

Experiments:
Format in all cases: in vitro ADME
CYP2E1 = CYP2E1 (Homo sapiens, UniProt P05181); assay: Metabolite formation by recombinant human CYP2E1; details: trazodone 4 μM; NADPH; 37 °C, 40 min
Experimental: (§1) To confirm the role of individual CYP isoforms in metabolizing trazodone, recombinant human and rat CYP enzymes were employed in separate incubations. […] Each reaction was terminated with acetonitrile, centrifuged, and the supernatant was analyzed by identical UHPLC-Orbitrap setup outlined in §2.2, allowing direct comparison of metabolite spectra across all in-vitro systems. […] This procedure helped confirm the contributions of individual isoforms to specific biotransformation reactions.

FMO3 = target: T1, FMO3 (Homo sapiens, UniProt P31513); assay: Metabolite formation by recombinant human FMO3; details: trazodone 4 μM; 37 °C, 40 min
T1 sequence (P31513 1-532): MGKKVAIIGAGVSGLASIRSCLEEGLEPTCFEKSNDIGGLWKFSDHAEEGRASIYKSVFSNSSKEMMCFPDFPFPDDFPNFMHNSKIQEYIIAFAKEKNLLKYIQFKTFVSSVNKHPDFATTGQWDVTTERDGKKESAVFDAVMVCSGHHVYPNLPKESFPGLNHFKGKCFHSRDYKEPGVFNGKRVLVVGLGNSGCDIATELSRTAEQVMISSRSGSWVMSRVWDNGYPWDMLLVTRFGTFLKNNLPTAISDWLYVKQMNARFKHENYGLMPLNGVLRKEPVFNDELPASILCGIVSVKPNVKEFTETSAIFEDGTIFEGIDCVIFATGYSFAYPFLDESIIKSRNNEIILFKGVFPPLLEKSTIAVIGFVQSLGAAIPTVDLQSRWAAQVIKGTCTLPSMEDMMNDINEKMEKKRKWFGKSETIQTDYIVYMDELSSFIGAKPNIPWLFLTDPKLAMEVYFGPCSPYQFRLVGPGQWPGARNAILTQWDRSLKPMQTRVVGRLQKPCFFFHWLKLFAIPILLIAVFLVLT

CYP2B6 = target: T2, CYP2B6 (Homo sapiens, UniProt P20813); assay: Metabolite formation by recombinant human CYP2B6; details: trazodone 4 μM; NADPH; 37 °C, 40 min
T2 sequence (P20813 1-491): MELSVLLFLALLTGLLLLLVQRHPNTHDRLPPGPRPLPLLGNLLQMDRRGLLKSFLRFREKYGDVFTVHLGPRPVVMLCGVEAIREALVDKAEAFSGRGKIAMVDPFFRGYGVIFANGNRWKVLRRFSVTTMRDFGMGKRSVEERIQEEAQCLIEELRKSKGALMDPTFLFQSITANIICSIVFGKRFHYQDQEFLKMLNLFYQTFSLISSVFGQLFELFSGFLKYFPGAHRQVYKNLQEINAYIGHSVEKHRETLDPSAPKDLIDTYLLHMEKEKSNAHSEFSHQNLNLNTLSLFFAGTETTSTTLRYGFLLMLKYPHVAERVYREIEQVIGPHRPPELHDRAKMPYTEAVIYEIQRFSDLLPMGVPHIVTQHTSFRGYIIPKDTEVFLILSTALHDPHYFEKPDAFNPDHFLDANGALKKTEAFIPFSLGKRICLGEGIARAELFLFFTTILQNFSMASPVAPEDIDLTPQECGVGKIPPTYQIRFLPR
Experimental: as §1

CYP2C8 = target: T3, CYP2C8 (Homo sapiens, UniProt P10632); assay: Metabolite formation by recombinant human CYP2C8; details: trazodone 4 μM; NADPH; 37 °C, 40 min
T3 sequence (P10632 1-490): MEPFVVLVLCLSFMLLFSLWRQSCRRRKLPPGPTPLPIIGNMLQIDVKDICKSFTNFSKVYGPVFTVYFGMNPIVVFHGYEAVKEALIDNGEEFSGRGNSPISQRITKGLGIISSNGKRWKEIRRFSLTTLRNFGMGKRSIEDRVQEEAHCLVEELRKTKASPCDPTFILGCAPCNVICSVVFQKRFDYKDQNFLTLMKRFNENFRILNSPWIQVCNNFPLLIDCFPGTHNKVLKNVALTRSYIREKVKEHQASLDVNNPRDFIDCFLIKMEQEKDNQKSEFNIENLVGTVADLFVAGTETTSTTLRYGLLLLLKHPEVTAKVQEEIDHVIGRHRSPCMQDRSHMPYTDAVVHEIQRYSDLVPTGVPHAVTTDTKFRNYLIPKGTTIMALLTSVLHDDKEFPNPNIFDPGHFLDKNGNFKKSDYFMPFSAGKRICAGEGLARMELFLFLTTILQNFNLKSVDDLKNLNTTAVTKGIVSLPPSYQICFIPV
Experimental: as §1

CYP2D4 = target: T4, CYP2D4 (Rattus norvegicus, UniProt Q64680); assay: Metabolite formation by recombinant rat CYP2D4; details: trazodone 4 μM; NADPH; 37 °C, 40 min
T4 sequence (Q64680 1-500): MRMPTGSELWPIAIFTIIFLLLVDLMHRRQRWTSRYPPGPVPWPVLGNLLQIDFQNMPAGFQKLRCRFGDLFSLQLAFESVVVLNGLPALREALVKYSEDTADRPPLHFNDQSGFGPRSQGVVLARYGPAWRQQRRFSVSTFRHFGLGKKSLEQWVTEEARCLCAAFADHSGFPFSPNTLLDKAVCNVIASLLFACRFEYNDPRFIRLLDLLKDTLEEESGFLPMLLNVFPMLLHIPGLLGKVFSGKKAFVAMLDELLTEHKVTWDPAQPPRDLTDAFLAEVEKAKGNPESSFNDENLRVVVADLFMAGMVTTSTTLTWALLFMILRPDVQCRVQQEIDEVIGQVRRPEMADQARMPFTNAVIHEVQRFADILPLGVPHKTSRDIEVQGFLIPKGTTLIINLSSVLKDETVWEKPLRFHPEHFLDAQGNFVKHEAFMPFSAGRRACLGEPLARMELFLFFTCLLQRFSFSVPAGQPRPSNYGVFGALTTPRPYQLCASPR
Experimental: as §1

CYP3A9 = target: T5, CYP3A9 (Rattus norvegicus, UniProt P51538); assay: Metabolite formation by recombinant rat CYP3A9; details: trazodone 4 μM; NADPH; 37 °C, 40 min
T5 sequence (P51538 1-503): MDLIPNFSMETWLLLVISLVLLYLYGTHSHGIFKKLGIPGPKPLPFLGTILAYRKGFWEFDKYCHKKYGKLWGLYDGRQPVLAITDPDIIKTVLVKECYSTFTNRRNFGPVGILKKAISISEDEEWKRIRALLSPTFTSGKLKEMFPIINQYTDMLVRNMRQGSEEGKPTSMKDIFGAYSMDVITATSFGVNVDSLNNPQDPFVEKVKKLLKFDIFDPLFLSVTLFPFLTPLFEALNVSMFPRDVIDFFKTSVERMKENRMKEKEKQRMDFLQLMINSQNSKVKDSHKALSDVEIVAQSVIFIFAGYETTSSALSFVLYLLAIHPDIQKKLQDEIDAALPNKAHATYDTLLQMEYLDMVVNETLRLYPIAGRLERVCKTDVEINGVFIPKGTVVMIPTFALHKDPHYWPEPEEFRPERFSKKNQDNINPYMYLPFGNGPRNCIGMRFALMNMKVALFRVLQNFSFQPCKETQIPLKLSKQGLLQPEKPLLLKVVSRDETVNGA
Experimental: Each reaction was terminated with acetonitrile, centrifuged, and the supernatant was analyzed by identical UHPLC-Orbitrap setup outlined in §2.2, allowing direct comparison of metabolite spectra across all in-vitro systems.

Chain of CYP2E1 (P05181 whole entry, canonical isoform): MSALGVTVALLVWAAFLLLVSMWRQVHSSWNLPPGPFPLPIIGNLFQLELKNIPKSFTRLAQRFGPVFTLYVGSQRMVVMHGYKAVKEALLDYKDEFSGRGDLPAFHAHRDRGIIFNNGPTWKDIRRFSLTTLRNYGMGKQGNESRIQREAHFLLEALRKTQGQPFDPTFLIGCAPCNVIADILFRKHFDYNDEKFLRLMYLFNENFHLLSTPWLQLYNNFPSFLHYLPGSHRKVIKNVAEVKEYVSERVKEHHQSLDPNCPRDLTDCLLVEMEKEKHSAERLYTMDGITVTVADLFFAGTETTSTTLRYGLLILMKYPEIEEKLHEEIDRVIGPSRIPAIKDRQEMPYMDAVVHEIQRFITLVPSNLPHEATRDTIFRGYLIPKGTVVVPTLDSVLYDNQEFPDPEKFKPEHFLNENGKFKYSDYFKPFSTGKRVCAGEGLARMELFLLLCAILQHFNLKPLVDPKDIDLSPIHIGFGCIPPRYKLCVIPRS

O=c1n(CCCO)nc2ccccn12 [Metabolite M20]
Formation of trazodone phase I metabolite by recombinant human CYP2E1 (as LC/MS peak areas) (CYP2E1): 0 | Formation of trazodone phase I metabolite by recombinant human FMO3 (as LC/MS peak areas) (FMO3): 0 | Formation of trazodone phase I metabolite by recombinant human CYP2B6 (as LC/MS peak areas) (CYP2B6): 0 | Formation of trazodone phase I metabolite by recombinant human CYP2C8 (as LC/MS peak areas) (CYP2C8): 0 | Formation of trazodone phase I metabolite by recombinant rat CYP2D4 (as LC/MS peak areas) (CYP2D4): 538 | Formation of trazodone phase I metabolite by recombinant rat CYP3A9 (as LC/MS peak areas) (CYP3A9): 1080

Clc1cccc(N2CCNCC2)c1 [mCPP, m-chlorophenylpiperazine]
Formation of trazodone phase I metabolite by recombinant human CYP2E1 (as LC/MS peak areas) (CYP2E1): 16 | Formation of trazodone phase I metabolite by recombinant human FMO3 (as LC/MS peak areas) (FMO3): 4 | Formation of trazodone phase I metabolite by recombinant human CYP2B6 (as LC/MS peak areas) (CYP2B6): 112 | Formation of trazodone phase I metabolite by recombinant human CYP2C8 (as LC/MS peak areas) (CYP2C8): 327 | Formation of trazodone phase I metabolite by recombinant rat CYP2D4 (as LC/MS peak areas) (CYP2D4): 3166 | Formation of trazodone phase I metabolite by recombinant rat CYP3A9 (as LC/MS peak areas) (CYP3A9): 18577

O=c1n(CCCN2CCNCC2)nc2ccccn12 [Metabolite M15]
Formation of trazodone phase I metabolite by recombinant human CYP2E1 (as LC/MS peak areas) (CYP2E1): 0 | Formation of trazodone phase I metabolite by recombinant human FMO3 (as LC/MS peak areas) (FMO3): 0 | Formation of trazodone phase I metabolite by recombinant human CYP2B6 (as LC/MS peak areas) (CYP2B6): 0 | Formation of trazodone phase I metabolite by recombinant human CYP2C8 (as LC/MS peak areas) (CYP2C8): 26 | Formation of trazodone phase I metabolite by recombinant rat CYP2D4 (as LC/MS peak areas) (CYP2D4): 184 | Formation of trazodone phase I metabolite by recombinant rat CYP3A9 (as LC/MS peak areas) (CYP3A9): 719
